Test results as given in ChEMBL document CHEMBL1201862, “PubChem BioAssay data set” (2004).
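These data come from cells grown in 96-well plates and exposed to compound for 48 hours at five concentrations. GI50: concentration for 50% inhibition of growth.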 The source made the active and inactive calls. No stated cut-off is given here; in the data, active = GI50 up to about 1.1 µM and inactive = higher.

Key:
Experiment in all cases: NCI tumour cell line growth inhibition, 48 h
UACC-62 = test system: UACC-62
COLO 205 = test system: COLO 205
K562 = test system: K562
LOX IMVI = test system: LOX IMVI
MDA-N = test system: MDA-N
NCI/ADR-RES = test system: NCI/ADR-RES
786-0 = test system: 786-0
M14 = test system: M14
SK-MEL-28 = test system: SK-MEL-28
HOP-92 = test system: HOP-92
SF-539 = test system: SF-539
HCC 2998 = test system: HCC 2998
T47D = test system: T47D
UO-31 = test system: UO-31
SNB-19 = test system: SNB-19
UACC-257 = test system: UACC-257
CAKI-1 = test system: CAKI-1
OVCAR-8 = test system: OVCAR-8
ACHN = test system: ACHN
RPMI-8226 = test system: RPMI-8226

Measured: GI50

O=C1CSC(c2ccc(Cl)cc2)N1c1ccc(-n2c(-c3ccccc3)nc3ccccc3c2=O)cc1 (stereo not drawn)
inactive: UACC-62 19.8 µM | COLO 205 > 100 µM | K562 36.8 µM | LOX IMVI 50.8 µM | MDA-N > 100 µM | NCI/ADR-RES 23.8 µM | 786-0 87.1 µM | M14 > 100 µM | SK-MEL-28 > 100 µM | HOP-92 10.3 µM | SF-539 > 100 µM | HCC 2998 34.5 µM | T47D 8.36 µM | UO-31 5.48 µM | SNB-19 > 100 µM | UACC-257 > 100 µM | CAKI-1 > 100 µM | OVCAR-8 > 100 µM | ACHN > 100 µM | RPMI-8226 > 100 µM

O=C(NC1(c2cc3ccccc3s2)CCCCC1)C1CCC1
inactive: UACC-62 > 100 µM | COLO 205 > 100 µM | K562 > 100 µM | LOX IMVI > 100 µM | MDA-N > 100 µM | NCI/ADR-RES > 100 µM | 786-0 > 100 µM | M14 > 100 µM | SK-MEL-28 66.8 µM | HOP-92 > 100 µM | SF-539 23.1 µM | HCC 2998 > 100 µM | T47D > 100 µM | UO-31 > 100 µM | SNB-19 > 100 µM | UACC-257 > 100 µM | CAKI-1 > 100 µM | OVCAR-8 66.4 µM | ACHN > 100 µM | RPMI-8226 > 100 µM

Cc1ccc(C)n2c1nc1ccccc12
inactive: UACC-62 80.5 µM | COLO 205 > 100 µM | K562 > 100 µM | MDA-N > 100 µM | NCI/ADR-RES > 100 µM | 786-0 > 100 µM | M14 > 100 µM | SK-MEL-28 > 100 µM | HOP-92 > 100 µM | SF-539 > 100 µM | HCC 2998 > 100 µM | T47D > 100 µM | UO-31 91.4 µM | SNB-19 > 100 µM | UACC-257 > 100 µM | OVCAR-8 > 100 µM | ACHN > 100 µM | RPMI-8226 > 100 µM

O=C1C2C(c3ccccc3)NC(c3ccccc3)C1C(c1ccccc1)NC2c1ccccc1 (stereo not drawn)
inactive: UACC-62 > 100 µM | COLO 205 > 100 µM | K562 > 100 µM | LOX IMVI > 100 µM | MDA-N > 100 µM | NCI/ADR-RES > 100 µM | 786-0 > 100 µM | M14 > 100 µM | SK-MEL-28 > 100 µM | HOP-92 > 100 µM | SF-539 > 100 µM | T47D > 100 µM | UO-31 > 100 µM | SNB-19 > 100 µM | UACC-257 > 100 µM | CAKI-1 > 100 µM | OVCAR-8 > 100 µM | ACHN > 100 µM | RPMI-8226 > 100 µM

O=C(Nc1ccc(Cl)cc1)[C-](C(=O)c1ccc(Br)cc1)[n+]1cccc(-c2ccc(Cl)cc2)n1
inactive: UACC-62 3.85 µM | COLO 205 4.15 µM | K562 6.3 µM | LOX IMVI 2.97 µM | MDA-N 4.53 µM | NCI/ADR-RES 3.53 µM | 786-0 2.56 µM | M14 3.68 µM | SK-MEL-28 8.77 µM | HOP-92 3.61 µM | HCC 2998 6.78 µM | T47D 1.64 µM | UO-31 5.87 µM | SNB-19 8.41 µM | UACC-257 3.88 µM | CAKI-1 2.56 µM | OVCAR-8 3.56 µM | ACHN 4.84 µM | RPMI-8226 3.81 µM

Cc1cc(S(=O)(=O)O)c(NC(=O)c2oc3cc(O)ccc3c(=O)c2C)cc1Cl
inactive: UACC-62 > 100 µM | K562 > 100 µM | LOX IMVI > 100 µM | MDA-N > 100 µM | NCI/ADR-RES > 100 µM | 786-0 > 100 µM | M14 > 100 µM | SK-MEL-28 > 100 µM | SF-539 > 100 µM | HCC 2998 > 100 µM | T47D > 100 µM | UO-31 > 100 µM | SNB-19 > 100 µM | UACC-257 > 100 µM | CAKI-1 > 100 µM | OVCAR-8 > 100 µM | ACHN > 100 µM | RPMI-8226 > 100 µM

COc1ccc(/N=N/C(=N\c2ccc(Cl)cc2)c2ccc(N(CCC#N)CCC#N)cc2)cc1
inactive: UACC-62 1.49 µM | COLO 205 5.19 µM | K562 26.4 µM | MDA-N 37.4 µM | NCI/ADR-RES 10.5 µM | 786-0 83.8 µM | M14 57.5 µM | SK-MEL-28 > 100 µM | HOP-92 33.2 µM | SF-539 > 100 µM | HCC 2998 4.91 µM | T47D 1.71 µM | UO-31 5.06 µM | SNB-19 > 100 µM | UACC-257 11.4 µM | CAKI-1 27.2 µM | OVCAR-8 > 100 µM | ACHN 19.9 µM | RPMI-8226 34.5 µM
